Assay results: the supplement of paper PMC9013687

Experiments:
[1] = system: Danio rerio embryo; test: EC20 Head-trunk angle_Decrease; higher = less potent; conditions: exposure time: 2 dpf
Experimental: (§1)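 Zebrafish embryos (UFZ-OBI strain) were exposed from 2 hpf for 48 h (2 dpf) or 96 h (4 dpf) at 28 °C; spontaneous tail coiling was scored at 25 hpf. Morphological features from automated image analysis (FishInspector), heart rate and locomotor response were fitted with drc models. Quantal endpoints were dichotomised at 2.5 SD from controls and fitted with a log-logistic model; heart rate, pigmentation and STC were normalised to the replicate control mean. Betamethasone was tested as betamethasone dipropionate, diflorasone as diflorasone diacetate.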

[2] = system: Danio rerio embryo; test: EC10 Head-trunk angle_Decrease; higher = less potent; conditions: exposure time: 2 dpf
Experimental: as §1

C[Si](Cn1cncn1)(c1ccc(F)cc1)c1ccc(F)cc1 [Flusilazole]
EC20 Head-trunk angle Decrease [1]: 6.28 µM
EC10 Head-trunk angle Decrease [2]: 4.35 µM
